Read-outs that look alike come from different tables or passages of the source.
What was measured:
MDA-MB-436 cells = assay: Synergy between Nampt inhibitors and the PARP inhibitor olaparib in BRCA1-deficient cells; format: cell-based; details: loss of BRCA1 function
Description: Experiments were conducted in HCT116 cells.
This was not fully unexpected, as PARP inhibitors are relatively benign to cells (like HCT116 cells) that have a functional homologous recombination (HR) system to repair double stranded DNA damage (Ashworth A. Journal of Clinical Oncology 26(22):3785-90 (2008)). In fact, the model (FIG. 1A) predicts that inhibiting an enzyme, such as PARP, that consumes NAD^+ would protect HR-proficient cells from Nampt inhibition. However, in cells that have lost the function of BRCA tumor suppressors, HR function is compromised, and these cells are killed by PARP inhibitors (Ashworth A. (2008) Journal of Clinical Oncology 26(22):3785-90). Thus, it was hypothesized that PARP inhibitors, while being antagonistic with Nampt inhibitors in most cells, would be synergistic in cells with BRCA mutations that render the cells HR-deficient (FIG. 1B). Indeed, in MDA-MB-436 cells, which have a loss of BRCA1 function, Nampt inhibitors (a known Nampt inhibitor, Exemplary Compound A and Exemplary Compound I, both Exemplary Compounds identified hereinafter) and the PARP inhibitor olaparib synergized in causing cell death. […] Of further significance to these findings, it is becoming clear that other routes of HR deficiency in oncogenesis (other than BRCA sequence mutation) could also lead to sensitivity to PARP inhibition plus Nampt inhibitor combination therapy. […]

cancer cell lines = assay: Cytotoxicity in a wide variety of cancer cell types (TC50, CellTiter-Glo, 72 or 96 hours); details: read-out: TC50
Description: Exponentially growing cells were plated in fresh growth media in a 96-well black, flat, clear-bottomed polystyrene microtiter plate (Packard View Plate 6005182). Twenty-four hours later, compounds were added from serial dilutions prepared in DMSO from 50 mM DMSO stock solutions. Each concentration of inhibitor was tested in duplicate at a final DMSO concentration of 0.4%. After 72 or 96 hours incubation, cell viability was quantified by measuring intracellular ATP levels using CellTiter-Glo (Promega). Luminescence data was collected on a TopCount NXT plate reader (PerkinElmer). Experimental values were normalized to solvent controls and plotted versus compound concentration to determine the concentration required for a 50% reduction in cell viability.

[1] = system: Cancer cell lines (SCLC, glioma, colon cancer and others)
Description: Experiments were conducted in HCT116 cells. […] For compound combination analyses, the MacSynergy™ II protocol and program were utilized, following the recommendations of the developers (Prichard and Shipman, 1990). Prior to combinations of compounds, dose curves of cells treated with a single compound were generated to define relevant compound doses to use in the combination analysis. Typically, relevant doses were those found in the inflection portion of a sigmoidal dose-response curve. Utilizing these optimized conditions, cells were dosed with Nampt inhibitor plus the test compound at a variety of concentrations of each, and viability was assessed using CellTiter-Glo. Data was processed using the MacSynergy™ II algorithm, which subtracted from actual data a prediction of compound additivity. Thresholds for meaningful synergy were defined based upon the recommendations of the developers (Prichard and Shipman, 1990).
Cancer cell lines used in these studies represented cancer types found to be sensitive to Nampt inhibition [e.g. non-Hodgkins lymphoma, multiple myeloma, glioma, non-small cell lung carcinoma (NSCLC), small cell lung carcinoma (SCLC), ovarian cancer and colorectal cancer].

Structure (SMILES): O=C(NCc1cccnc1)Nc1ccc(COc2ccccc2-c2ccccc2)cc1 [Exemplary Compound A]
- drug interaction with the PARP inhibitor olaparib in causing cell death (MDA-MB-436 cells): synergized
- CC50 (cancer cell lines; A172 cells, glioma, 3 DAY): 1.1 nM
- CC50 (cancer cell lines; COLO205 cells, colon, 3 DAY): 0.5 nM
- CC50 (cancer cell lines; COLO205 cells, colon, 7 DAY): 0.3 nM
- CC50 (cancer cell lines; DB cells, lymphoma, 3 DAY): 3.5 nM
- CC50 (cancer cell lines; DMS-114 cells, SCLC, 3 DAY): 0.16 nM
- CC50 (cancer cell lines; DU145 cells, prostate, 3 DAY): 3.9 nM
- CC50 (cancer cell lines; DU145 cells, prostate, 7 DAY): 2.7 nM
- CC50 (cancer cell lines; DU4475 cells, breast, 3 DAY): 0.1 nM
- CC50 (cancer cell lines; DU4475 cells, breast, 7 DAY): 0.1 nM
- CC50 (cancer cell lines; HCC827 cells, NSCLC, 3 DAY): 8 nM
- CC50 (cancer cell lines; HCC827 cells, NSCLC, 7 DAY): 1.5 nM
- CC50 (cancer cell lines; HCT116 cells, colon, 3 DAY): 0.6 nM
- CC50 (cancer cell lines; HCT116 cells, colon, 7 DAY): 0.4 nM
- CC50 (cancer cell lines; HCT-15 cells, colon, 3 DAY): 0.7 nM
- CC50 (cancer cell lines; HCT-15 cells, colon, 7 DAY): 1 nM
- CC50 (cancer cell lines; HOP92 cells, NSCLC, 3 DAY): 17 nM
- CC50 (cancer cell lines; HOP92 cells, NSCLC, 7 DAY): 4.3 nM
- CC50 (cancer cell lines; HT29 cells, colon, 3 DAY): 1.4 nM
- CC50 (cancer cell lines; HT29 cells, colon, 7 DAY): 1.1 nM
- CC50 (cancer cell lines; HT1080 cells, sarcoma, 3 DAY): 1 nM
- CC50 (cancer cell lines; HT1080 cells, sarcoma, 7 DAY): 0.6 nM
- CC50 (cancer cell lines; KM12 cells, colon, 3 DAY): 0.9 nM
- CC50 (cancer cell lines; KM12 cells, colon, 7 DAY): 0.4 nM
- CC50 (cancer cell lines; MDA-MB-231 cells, breast, 3 DAY): 10 nM
- CC50 (cancer cell lines; MDA-MB-231 cells, breast, 7 DAY): 7.5 nM
- CC50 (cancer cell lines; MIA PaCa-2 cells, pancreatic, 3 DAY): 1.8 nM
- CC50 (cancer cell lines; MIA PaCa-2 cells, pancreatic, 7 DAY): 0.4 nM
- CC50 (cancer cell lines; NCI-H69 cells, SCLC, 3 DAY): 1 nM
- CC50 (cancer cell lines; NCI-H82 cells, SCLC, 3 DAY): 1.1 nM
- CC50 (cancer cell lines; NCI-H460 cells, NSCLC, 3 DAY): 15.4 nM
- CC50 (cancer cell lines; NCI-H522 cells, NSCLC, 3 DAY): 1 nM
- CC50 (cancer cell lines; NCI-H522 cells, NSCLC, 7 DAY): 0.4 nM
- CC50 (cancer cell lines; NCI-H929 cells, myeloma, 3 DAY): 2.5 nM
- CC50 (cancer cell lines; NCI-H1650 cells, NSCLC, 3 DAY): 2.5 nM
- CC50 (cancer cell lines; NCI-N87 cells, gastric, 3 DAY): 0.3 nM
- CC50 (cancer cell lines; NCI-N87 cells, gastric, 7 DAY): 0.2 nM
- CC50 (cancer cell lines; OCI-Ly19 cells, lymphoma, 3 DAY): 1.2 nM
- CC50 (cancer cell lines; OPM-2 cells, myeloma, 3 DAY): 1.5 nM
- CC50 (cancer cell lines; OVCAR3 cells, ovarian, 3 DAY): 1.1 nM
- CC50 (cancer cell lines; OVCAR3 cells, ovarian, 7 DAY): 0.4 nM
- CC50 (cancer cell lines; SF-295 cells, glioma, 3 DAY): 1.5 nM
- CC50 (cancer cell lines; SU-DHL-4 cells, lymphoma, 3 DAY): 1.5 nM
- CC50 (cancer cell lines; SU-DHL-5 cells, lymphoma, 3 DAY): 0.9 nM
- CC50 (cancer cell lines; U-87MG cells, glioma, 3 DAY): 23 nM
- cytotoxicity in combination with 4HC [1]: Synergistic cytotoxicity
- cytotoxicity in combination with 5-FU [1]: Synergistic cytotoxicity
- cytotoxicity in combination with temozolomide [1]: Synergistic cytotoxicity

Reference: patent US20130317027A1, “COMPOUNDS AND THERAPEUTIC USES THEREOF” (Myrexis, Inc, priority 2010, published 2013)
